Laboratory results as given in US11958864B2, “Tetracyclic heterocycle compounds useful as HIV integrase inhibitors” (Merck Sharp & Dohme LLC, priority 2021, dated 2024).

Test: Dog pharmacokinetic studies: oral dosing of Compound A or prodrug, plasma Compound A by LC-MS/MS
Assay type: in vivo, Male Beagle Dogs
Details: fasted Beagle dogs, comparison with dosing of Compound A
Experimental: Male Beagle Dogs (Marshall Farms) were used for the pharmacokinetic studies. Studies were conducted under a protocol approved by the WP-IACUC (Animal Procedure Statement #2018-600787-MAR). Following overnight-fasting, dogs were dosed orally with either Compound A at 10 mg/kg and 25 mg/kg or one of the respective prodrugs at the dose equivalent to 10 mg/kg and 25 mg/kg of Compound A formulated as a suspension in either 0.5% methylcellulose with 0.25% sodium lauryl sulfate or 10% Tween 80-5 mM HCl. Food was returned at 4 hours after dosing. Blood (0.5-mL) was drawn at pre-dose, 0.25, 0.5, 1, 2, 4, 6, 24, 48, 72, 96, and 168 hours post-dosing into EDTA-coated collection tubes containing 25 μL of 2 mM dichlorvos solution in water. The tubes were kept chilled prior to blood collection and throughout plasma separation. The plasma was separated by centrifugation (2 minutes at 10000 g). Plasma samples were immediately frozen and kept at −70° C. until analysis by LC-MS/MS.

Compound	absorption versus their metabolite, Compound A
COCCOC(=O)OCOc1c2n3c(c(C(=O)NCc4cccc(Cl)c4F)c1=O)CC[C@@H]3[C@@H]1OCCCN1C2=O [Compound 1, (((11aS,11bR)-3-((3-chloro-2-fluorobenzyl)carbamoyl)-4,6-dioxo-1,2,4,6,9,10,11a,11b-octahydro-8H-[1,3]oxazino[2′,3′:3,4]pyrazino[2,1,6-cd]indolizin-5-yl)oxy)methyl (2-methoxyethyl) carbonate]	increase in absorption
COC(=O)OCOc1c2n3c(c(C(=O)NCc4cccc(Cl)c4F)c1=O)CC[C@@H]3[C@@H]1OCCCN1C2=O [Compound 6, (((11aS,11bR)-3-((3-chloro-2-fluorobenzyl)carbamoyl)-4,6-dioxo-1,2,4,6,9,10,11a,11b-octahydro-8H-[1,3]oxazino[2′,3′:3,4]pyrazino[2,1,6-cd]indolizin-5-yl)oxy)methyl methyl carbonate]	increase in absorption
